From patent US10787465B2, “Lanthanide toolbox for organelle specific molecular imaging with multi-color” (New Life Medicine Technology Company Limited, priority 2017, dated 2020)

Legend:
GFP-ARL13B = assay: Co-localization imaging with primary cilia marker GFP-ARL13B; assay type: cell-based, Human; conditions: HeLa cells, 10 μM
Text: (§1) (a) 3D Co-Localization Imaging of HGEu001 and HGEu002 with Primary Cilia Markers ARTL13B and IFT88.
(§2) Full length ARTL13B (ADP-ribosylation factor-like protein 13B) was PCR amplified from cDNA library and inserted into multiple cloning sites (MCS) of pEGFP-C3 (CLONETECH, #6082-1) using restriction digestion sites of XhoI/EcorI for GFP-ARTL13B expression. […] Plasmid mEmerald-IFT88-N-18 (intraflagellar transport protein 88 homolog) expressing GFP-IFT88 was a gift from Michael Davidson (Addgene plasmid #54125). Plasmids were amplified in E. coli (DH5α) and purified using a StarPrep Plasmid Miniprep Kit (Genstar). Both GFP-ARL13B and GFP-ITF88 for primary cilium tracking were expressed in HeLa cells through lipofectamine2000 (Cat. No.11668-019, Invitrogen) mediated transfection. Briefly, a 3.5 cm dish of HeLa cells (with 70-80% confluent) was transfected with 4 μg DNA plus 4 μL lipotectamine2000 mixture according to the manufacturer instructions. After incubation for 8 hours, 10 μM of HGEu001 or HGEu002 were added and incubated for 6 hours.

SK-N-SH cells = assay: MTT cell cytotoxicity assay, SK-N-SH; assay type: cell-based, Human; conditions: Incubation time = 24 hours
Description: (§3) Human cervical cancer HeLa cells were grown in Dulbecco's Modified Eagle Medium (DMEM). Human lung normal diploid fibroblasts MRC-5 and neuroblastoma cells SK-N-SH were provided by Cell resource center of Shanghai Institute of Biological Sciences, Chinese Academy of Sciences; and cultured in MEM (GIBCO 41500034); Human derived liver cells QSG-7701 cells were grown in RPMI-1640 (GIBCO 31800022); all cells were supplemented with 10% (v/v) fetal bovine serum, 1% penicillin and streptomycin at 37° C. and 5% CO2.
(§4) HeLa, SKA-SH, QSG-7701 or MRC-5 cells treated with testing complexes for 24 hours were further incubated with MTT, 3-(4,5-dimethylthiazol-2-yl)-2 and 5-diphenyltetrazolium bromide (0.5 mg; ml) for 4 hours, to produce formazan during cell metabolism. Then, formazan was thoroughly dissolved by dimethyl sulfoxide (DMSO), and the absorbance of solutions was measured in Bio-Rad iMark microplate reader (570 nm). Quadruplicates were performed. Data analysis and plotting were operated by the GraphPad Prism 5 software.

HeLa cells [1] = assay: Two-photon confocal in vitro imaging (subcellular localization); assay type: cell-based, Human; conditions: 10 μM; for localization of red emission: two-photon λex=700 nm
Description: Cells were seeded on coverslip in 35-mm culture dishes overnight. And then incubated with HGEu001 or HGEu002 (10 μM) for 6 hours, and the cells were washed by PBS 3 times before imaging. […] Then the unabsorbed complexes were washed out with PBS buffer and the cells were subject to microscopic imaging. The in vitro imaging of HGEu001 and HGEu002 were undertaken on a linear fluorescence microscopy under 375 nm UV light excitation or a confocal laser scanning microscope, Leica TCS SP8, equipped with a Ti:sapphire laser (Libra II, coherent). The excitation beam produced by 690 nm to 1080 nm (fs laser) was focused on the adherent cells through a 63× oil immersion objective.
3D images obtained by the Z-stacks form the two-photon confocal microscopy and the 3D reconstruction was done with built-in programs of Leica TCS SP8 confocal microscope.

QSG-7701 cells = assay: MTT cell cytotoxicity assay, QSG-7701; assay type: cell-based, Human; conditions: Incubation time = 24 hours
Description: as §3, §4

GFP-IFT88 = assay: Co-localization imaging with primary cilia marker GFP-IFT88; assay type: cell-based, Human; conditions: HeLa cells, 10 μM, 6 hours, z stack, λex=700 nm
Text: as §1, §2

HeLa cells [2] = assay: MTT cell cytotoxicity assay, HeLa; assay type: cell-based, Human; conditions: Incubation time = 24 hours
Description: as §3, §4

[3] = Photophysical studies (absorption, emission, decay lifetime, quantum yield); assay type: physicochemical
Description: UV-Visible absorption spectra in the spectral range 200 to 1100 nm were recorded by an HP Agilent UV-8453 Spectrophotometer. The emission spectra and the emission decay lifetimes of HGEu001 and HGEu002 were measured by Horiba Fluorolog-3 spectrophotometer and also measured by Edinburgh instrument ELS920 spectrophotometer for cross checking. (Two spectrophotometers are equipped with a 450 W continuous xenon lamp for steady state emission measurement, 60 W xenon flashlamp for emission life time measurement and an UV-Vis PMT detector—Hamamatsu—R928 cooled 216 at −20° C.)
UV-Visible absorption spectra of HGEu001-Coumarin and HGEu001-Por were recorded by an HP Agilent UV-8453 Spectrophotometer. The emission spectra of HGEu001-Coumarin and HGEu001-Por were measured by Horiba Fluorolog-3 spectrophotometer, which was equipped with a 450 W continuous xenon lamp and a UV-Vis PMT detector—Hamamatsu—R928 cooled 216 at −20° C. for steady state emission measurement.

MRC-5 cells = assay: MTT cell cytotoxicity assay, MRC-5; assay type: cell-based, Human; conditions: Incubation time = 24 hours
Description: as §3, §4

[4] = test system: organelles (mitochondria, lysosome and Golgi apparatus); assay: Co-localization imaging with organelle probes; assay type: cell-based, Human; conditions: HeLa cells, 10 μM, 6 hours, MitoTracker Green FM
Description: (b) Co-Localization Imaging of HGEu001 and HGEu002 with Organelles.
Live cell labeling probes of organelles (mitochondria, lysosome and Golgi apparatus) MitoTracker® Green FM (M-7514), LysoTracker® Green DND-26 (L-7526) and GolgiTracker® Oregon Green (W6748, Wheat Germ Agglutinin) were respectively purchased from ThermoFisher Scientic Inc. and stocked in −20° C.
Three dishes of HeLa cells (1×10^5) were first incubated with 10 μM HGEu001/HGEu002 for 6 hours. Then organelles probes (50 nM, each) were added in parallel to the cells and further incubated for 15 minutes. The cells were washed by PBS 3 times before imaging on the linear fluorescence microscopy. Under the excitation of UV light (375 nm) emission from the channel (610-630 nm) were collected for the emission signals from HGEu001/HGEu002. Under 488 nm blue light excitation, imaging channel in the range between 505 and 555 nm were collected from the emission signal of organelles dyes.

SMILES: CC(C)(C)NC(=O)CN1CCN(CC(=O)NC(C)(C)C)CCN(Cc2cc(C#Cc3ccc(NC(=O)c4ccc(C(F)(F)F)cc4)cc3)ccn2)CCN(CC(=O)NC(C)(C)C)CC1.O.[Cl-].[Cl-].[Cl-].[Eu+3] [HGEu002]
- overlap of red emission with green emission of GFP-ARL13B (merged images) (GFP-ARL13B; 6 hour incubation after GFP transfection): only slight yellow emission can be found in their merged images
- merged emission on co-staining with GFP-ARL13B, three dimensional imaging (GFP-ARL13B; 6 hours, z stack, λex=700 nm): did not show merged yellow in vitro emission
- IC50 (SK-N-SH cells): 437 µM
- localization of red emission (HeLa cells [1]; 3 hours incubation): localized in cytoplasm
- localization of red emission (HeLa cells [1]; 6 hours incubation): localized in cytoplasm
- europium emission in the rod-like organelles, three dimensional confocal images (HeLa cells [1]; 6 hours, z stack, excitation at 700 nm): did not show any europium emission in the rod-like organelles
- localization of red emission (HeLa cells [1]; 18 hours incubation): localized in cytoplasm
- localization of red emission (HeLa cells [1]; 24 hours incubation): localized in cytoplasm
- IC50 (QSG-7701 cells): 410 µM
- merged emission on co-staining with GFP-IFT88, three dimensional imaging (GFP-IFT88): did not show merged yellow in vitro emission
- IC50 (HeLa cells [2]): 417 µM
- τ(D2O), europium emission decay lifetime ([3]; D2O, λem = 614 nm, 5D0→7F2, λex = 340 nm): 1.78 ms
- τ(H2O), europium emission decay lifetime ([3]; H2O, λem = 614 nm, 5D0→7F2, λex = 340 nm): 0.56 ms
- ε (absorption coefficient) ([3]; in H2O, 298K): 22200 M⁻¹ cm⁻¹
- λmax (absorption) ([3]; in H2O, 298K): 327 nm
- ΦL^Eu, overall europium emission quantum yield ([3]; in H2O, by integrated sphere): 10.3%
- q, derived hydration number ([3]; q (±20%), from k(H2O) and k(D2O)): 0.9
- IC50 (MRC-5 cells): 402 µM
- merged emission with green mito-tracker, three dimensional imaging [4]: did not show merged yellow in vitro emission
